Assay results: PMC11992225, “Antibacterial compounds against non-growing and intracellular bacteria” (npj Antimicrobials and Resistance, 2025)
≈ marks a conversion by molar mass, not a printed value. Read-outs that look alike come from different tables or passages of the source.

Columns and labels:
[1] = system: non-growing P. aeruginosa DSM1117; experiment: Dilution-regrowth assay (OD600, start-growth-time) on stationary-phase P. aeruginosa; assay type: cell-based, Pseudomonas aeruginosa; conditions: P. aeruginosa; for Regrowth, OD600 at 6h or 8h after dilution into drug-free medium: average; for EC50: Pseudomonas aeruginosa, DSM1117, regrowth delay of non-growing bacteria, 1:4 CA-MHB pH 7.4, 24 h treatment, OD600 8 h after dilution, read-out: EC50
Procedure: To determine the spectrum of activity of the compounds that were effective against non-growing UPEC, we further assessed their efficacy against the well-characterized Gram-negative and Gram-positive reference strains P. aeruginosa DSM1117 and S. aureus DSM2569, respectively. The cultures were grown and treated for 24 h in 1:4 CA-MHB (pH 7.4). […].
For better characterization of the compounds causing the strongest regrowth delay, we performed the regrowth step of the dilution-regrowth experiments on a plate reader, measuring the OD600 at 20-min intervals for over 20 h instead of using an endpoint measurement. This approach allowed us to capture the time when cultures reached a threshold optical density (start-growth-time, SGT[15]).
Overnight cultures of UPEC, P. aeruginosa and S. aureus were grown in test tubes containing 3 ml of LB broth (~16 h), then diluted 1:100 into either 1:4 diluted CA-MHB medium buffered with 40 mM HEPES (pH 7.4) or, in case of UPEC, into LPM medium[25] supplemented with 49 µM MgCl2 and buffered with 30 mM MES (pH 5.5). The cultures were incubated for 24 h in non-baffled Erlenmeyer flasks at 37 °C with shaking at 200 rpm.
For P. aeruginosa and S. aureus, dose–response analysis was conducted in 96-well plates with a 200 μl assay volume, following the procedure used for screening assay validation experiments. Aliquots of the 39 compounds active against non-growing UPEC were obtained from SelleckChem and MedChem Express. Stock solutions were prepared and stored according to the manufacturers’ instructions, then diluted in 10% DMSO before use. Cultures were incubated for 24 h in 1:4 diluted CA-MHB medium under the same conditions used for UPEC cultivation. In preliminary experiments, each compound was tested at a concentration of 20 μM in the dilution-regrowth assay with 4 technical replicates. Regrowth was monitored using a microplate reader at 37 °C with continuous shaking, and OD600 was recorded every 20 min. The time at which OD600 exceeded the threshold of 0.12 was recorded as the Start_Growth-Time.
The statistical analysis of all data, as well as EC50 and IC50 determination, was conducted using GraphPad Prism 10.2.3. Statistical significance of the drug effects was assessed using a one-way ANOVA followed by Dunnett’s test, comparing each treatment to the drug-free control. Statistical significance of the differences in chemical characteristics between the hit compounds and the Prestwick library was assessed using a Mann–Whitney test. Statistical significance was set at P ≤ 0.05. A five-parameter logistic equation was used for asymmetric sigmoidal curve fitting and for EC50 and IC50 determination. The Venn diagram in Fig. 1F was prepared using BioVenn web application. Characteristics of the chemical and physical properties of Prestwick library compounds were obtained from Supplementary Table S1 from reference. Characteristics of the hit compounds not included in the Prestwick library were retrieved from the PubChem database.

non-growing UPEC CFT073 = experiment: Dilution-regrowth assay (screen, hit validation, dose-response) on stationary-phase UPEC; assay type: cell-based, Escherichia coli; conditions: for Regrowth, OD600 at 6h or 8h after dilution into drug-free medium: average; for Regrowth: OD600 after dilution into drug-free medium (mean): OD600 at 6h or 8h; for OD600 at 6hr, Mean: after dilution into drug-free medium
How it was run: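 Regrowth (OD600 after 6 h, 37 °C) of diluted non-growing CFT073, following 24 h compound treatment of 24 h stationary cultures, defines activity relative to untreated control. Screen at 20 µM, validation at 20, 10, 5 µM (duplicates), dose–response in three biological replicates fitted by five-parameter logistic.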

S. flexneri 5a M90T = experiment: MIC in tryptic soy broth, S. flexneri; assay type: cell-based, Shigella flexneri; conditions: for MIC: Shigella flexneri, 5AM90T, read-out: MIC (μM) TSB
How it was run: (§1)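 Medium: CA-MHB + 40 mM HEPES, pH 7.4 (UPEC, P. aeruginosa, S. aureus); LPM + 30 mM MES, pH 5.5 (UPEC, extra condition); TSB (S. flexneri). Microdilution format, n = 3.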

P. aeruginosa DSM1117 = experiment: MIC, standard microdilution assay, growing P. aeruginosa; assay type: cell-based, Pseudomonas aeruginosa; conditions: P. aeruginosa
How it was run: as §1

[2] = E. coli in 1:4 CA-MHB (pH 7.4), concentration 0.25
[3] = E. coli in 1:4 CA-MHB (pH 7.4), concentration 0.5
[4] = E. coli in 1:4 CA-MHB (pH 7.4), concentration 1
[5] = E. coli in 1:4 CA-MHB (pH 7.4), concentration 2.5
[6] = E. coli in 1:4 CA-MHB (pH 7.4), concentration 5
[7] = E. coli in 1:4 CA-MHB (pH 7.4), concentration 10
[8] = E. coli in 1:4 CA-MHB (pH 7.4), concentration 30
[9] = E. coli in LPM (pH 5.5), concentration 0.25
[10] = E. coli in LPM (pH 5.5), concentration 0.5
[11] = E. coli in LPM (pH 5.5), concentration 1
[12] = E. coli in LPM (pH 5.5), concentration 2.5
[13] = E. coli in LPM (pH 5.5), concentration 5
[14] = E. coli in LPM (pH 5.5), concentration 10
[15] = E. coli in LPM (pH 5.5), concentration 30
[16] = Pseudomonas aeruginosa, DSM1117, 1:4 diluted CA-MHB pH 7.4, read-out: MIC (μM) 1:4 CA-MHB
[17] = Pseudomonas aeruginosa, DSM1117, CA-MHB pH 7.4, read-out: MIC (μM) CA-MHB

N[C@@H]1CCCCN(c2c(F)cc3c(=O)c(C(=O)O)cn(C4CC4)c3c2Cl)C1 [Besifloxacin]
Regrowth, OD600 at 6h or 8h after dilution into drug-free medium ([1]; concentration 0.1): 0.563
Regrowth, OD600 at 6h or 8h after dilution into drug-free medium ([1]; concentration 0.5): 0.201
Regrowth, OD600 at 6h or 8h after dilution into drug-free medium ([1]; concentration 2.5): 0.091
Regrowth, OD600 at 6h or 8h after dilution into drug-free medium ([1]; concentration 10): 0.090
EC50 [1]: 0.266 µM
Regrowth, OD600 at 6h or 8h after dilution into drug-free medium (non-growing UPEC CFT073; [2]): 0.548
Regrowth, OD600 at 6h or 8h after dilution into drug-free medium (non-growing UPEC CFT073; [3]): 0.480
Regrowth, OD600 at 6h or 8h after dilution into drug-free medium (non-growing UPEC CFT073; [4]): 0.155
Regrowth, OD600 at 6h or 8h after dilution into drug-free medium (non-growing UPEC CFT073; [5]): 0.075
Regrowth, OD600 at 6h or 8h after dilution into drug-free medium (non-growing UPEC CFT073; [6]): 0.073
Regrowth, OD600 at 6h or 8h after dilution into drug-free medium (non-growing UPEC CFT073; [7]): 0.071
Regrowth, OD600 at 6h or 8h after dilution into drug-free medium (non-growing UPEC CFT073; [8]): 0.073
Regrowth, OD600 at 6h or 8h after dilution into drug-free medium (non-growing UPEC CFT073; [9]): 0.547
Regrowth, OD600 at 6h or 8h after dilution into drug-free medium (non-growing UPEC CFT073; [10]): 0.532
Regrowth, OD600 at 6h or 8h after dilution into drug-free medium (non-growing UPEC CFT073; [11]): 0.550
Regrowth, OD600 at 6h or 8h after dilution into drug-free medium (non-growing UPEC CFT073; [12]): 0.548
Regrowth, OD600 at 6h or 8h after dilution into drug-free medium (non-growing UPEC CFT073; [13]): 0.531
Regrowth, OD600 at 6h or 8h after dilution into drug-free medium (non-growing UPEC CFT073; [14]): 0.531
Regrowth, OD600 at 6h or 8h after dilution into drug-free medium (non-growing UPEC CFT073; [15]): 0.471
EC50 (non-growing UPEC CFT073; Escherichia coli, pH 7.4): 0.677 µM
MIC (S. flexneri 5a M90T): 0.25 µM (≈ 0.0985 µg/mL)
increase of MIC in diluted CA-MHB versus CA-MHB (P. aeruginosa DSM1117): twofold
MIC (P. aeruginosa DSM1117; [16]): 8 µM (≈ 3.15 µg/mL)
MIC (P. aeruginosa DSM1117; [17]): 4 µM (≈ 1.58 µg/mL)

O=C(O)c1cn(C2CC2)c2cc(N3CCNCC3)c(F)cc2c1=O [Ciprofloxacin]
EC50 [1]: 0.125 µM
EC50 (non-growing UPEC CFT073; Escherichia coli, E. coli, pH 7.4, regrowth delay of non-growing bacteria, 1:4 CA-MHB, 24 h treatment, OD600 6 h after 2500-fold dilution, read-out: EC50): 1.38 µM
MIC (S. flexneri 5a M90T): 0.0625 µM (≈ 0.0207 µg/mL)
MIC (P. aeruginosa DSM1117; [16]): 2 µM (≈ 0.663 µg/mL)
MIC (P. aeruginosa DSM1117; [17]): 2 µM (≈ 0.663 µg/mL)

CO[C@H]1/C=C/O[C@@]2(C)Oc3c(C)c(O)c4c(O)c(c(/C=N/N5CCN(C6CCCC6)CC5)c(O)c4c3C2=O)NC(=O)/C(C)=C\C=C\[C@H](C)[C@H](O)[C@@H](C)[C@@H](O)[C@@H](C)[C@H](OC(C)=O)[C@@H]1C [Rifapentine]
Regrowth: OD600 after dilution into drug-free medium (mean) (non-growing UPEC CFT073; [2]): 0.612
Regrowth: OD600 after dilution into drug-free medium (mean) (non-growing UPEC CFT073; [3]): 0.591
Regrowth: OD600 after dilution into drug-free medium (mean) (non-growing UPEC CFT073; [4]): 0.589
Regrowth: OD600 after dilution into drug-free medium (mean) (non-growing UPEC CFT073; [5]): 0.581
Regrowth: OD600 after dilution into drug-free medium (mean) (non-growing UPEC CFT073; [6]): 0.558
Regrowth: OD600 after dilution into drug-free medium (mean) (non-growing UPEC CFT073; [7]): 0.549
Regrowth: OD600 after dilution into drug-free medium (mean) (non-growing UPEC CFT073; [8]): 0.527
Regrowth: OD600 after dilution into drug-free medium (mean) (non-growing UPEC CFT073; [9]): 0.548
Regrowth: OD600 after dilution into drug-free medium (mean) (non-growing UPEC CFT073; [10]): 0.505
Regrowth: OD600 after dilution into drug-free medium (mean) (non-growing UPEC CFT073; [11]): 0.379
Regrowth: OD600 after dilution into drug-free medium (mean) (non-growing UPEC CFT073; [12]): 0.232
Regrowth: OD600 after dilution into drug-free medium (mean) (non-growing UPEC CFT073; [13]): 0.178
Regrowth: OD600 after dilution into drug-free medium (mean) (non-growing UPEC CFT073; [14]): 0.148
Regrowth: OD600 after dilution into drug-free medium (mean) (non-growing UPEC CFT073; [15]): 0.112
EC50 (non-growing UPEC CFT073; Escherichia coli, E. coli, LPM pH 5.5, regrowth delay of non-growing bacteria, 24 h treatment, OD600 6 h after 2500-fold dilution, read-out: EC50): 1.16 µM
EC50 (non-growing UPEC CFT073; Escherichia coli, LPM pH 5.5 (red curve), medium assigned by comparison with Dataset 1, read-out: EC50 (regrowth inhibition curve, Fig. S4)): 1.19 µM
MIC (S. flexneri 5a M90T): 16 µM (≈ 14 µg/mL)
MIC (P. aeruginosa DSM1117; [17]): 80 µM (≈ 70.2 µg/mL)

Bleomycin
OD600 at 6hr, Mean (non-growing UPEC CFT073; E. coli in 1:4 CA-MHB (pH 7.4), 0.25 μM): 0.585
OD600 at 6hr, Mean (non-growing UPEC CFT073; E. coli in 1:4 CA-MHB (pH 7.4), 0.5 μM): 0.575
OD600 at 6hr, Mean (non-growing UPEC CFT073; E. coli in 1:4 CA-MHB (pH 7.4), 1 μM): 0.327
OD600 at 6hr, Mean (non-growing UPEC CFT073; E. coli in 1:4 CA-MHB (pH 7.4), 2.5 μM): 0.130
OD600 at 6hr, Mean (non-growing UPEC CFT073; E. coli in 1:4 CA-MHB (pH 7.4), 5 μM): 0.073
OD600 at 6hr, Mean (non-growing UPEC CFT073; E. coli in 1:4 CA-MHB (pH 7.4), 10 μM): 0.067
OD600 at 6hr, Mean (non-growing UPEC CFT073; E. coli in 1:4 CA-MHB (pH 7.4), 30 μM): 0.076
OD600 at 6hr, Mean (non-growing UPEC CFT073; E. coli in LPM (pH 5.5), 0.25 μM): 0.600
OD600 at 6hr, Mean (non-growing UPEC CFT073; E. coli in LPM (pH 5.5), 0.5 μM): 0.583
OD600 at 6hr, Mean (non-growing UPEC CFT073; E. coli in LPM (pH 5.5), 1 μM): 0.569
OD600 at 6hr, Mean (non-growing UPEC CFT073; E. coli in LPM (pH 5.5), 2.5 μM): 0.559
OD600 at 6hr, Mean (non-growing UPEC CFT073; E. coli in LPM (pH 5.5), 5 μM): 0.513
OD600 at 6hr, Mean (non-growing UPEC CFT073; E. coli in LPM (pH 5.5), 10 μM): 0.348
OD600 at 6hr, Mean (non-growing UPEC CFT073; E. coli in LPM (pH 5.5), 30 μM): 0.169
EC50 (non-growing UPEC CFT073; E. coli, LPM pH 5.5, regrowth delay of non-growing bacteria, 24 h treatment, OD600 6 h after 2500-fold dilution, read-out: EC50): 9.49 µM
EC50 (non-growing UPEC CFT073; E. coli, pH 7.4, regrowth delay of non-growing bacteria, 1:4 CA-MHB, 24 h treatment, OD600 6 h after 2500-fold dilution, read-out: EC50): 0.987 µM
MIC (μM) TSB (S. flexneri 5a M90T; S. flexneri, extracellular bacteria in TSB): 0.25 µM
MIC (P. aeruginosa DSM1117; CA-MHB pH 7.4, read-out: MIC (μM) CA-MHB): >100 µM
